Active and inactive are the calls of the source.
How the values were obtained:
Melanocortin receptor 4 = Melanocortin receptor 4 (Homo sapiens, UniProt P32245); format: functional, cell-based;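 also: Cell-based assay with luminescence read-out, confirmatory dose-response testing for agonist activity of biased ligands at MC4R; human U2OS cells with tagged receptor and beta-arrestin; potency of agonists that increase receptor coupling to beta-arrestin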
[1] = half-maximal inhibitory concentration for glucagon-like peptide-1 release, STC-1 cell line, dose-response (AID 1117345); format: functional, cell-based
[2] = target: T1, DNA repair protein RAD52 homolog (Homo sapiens, UniProt P43351); format: functional, biochemical
T1 sequence (P43351 whole entry): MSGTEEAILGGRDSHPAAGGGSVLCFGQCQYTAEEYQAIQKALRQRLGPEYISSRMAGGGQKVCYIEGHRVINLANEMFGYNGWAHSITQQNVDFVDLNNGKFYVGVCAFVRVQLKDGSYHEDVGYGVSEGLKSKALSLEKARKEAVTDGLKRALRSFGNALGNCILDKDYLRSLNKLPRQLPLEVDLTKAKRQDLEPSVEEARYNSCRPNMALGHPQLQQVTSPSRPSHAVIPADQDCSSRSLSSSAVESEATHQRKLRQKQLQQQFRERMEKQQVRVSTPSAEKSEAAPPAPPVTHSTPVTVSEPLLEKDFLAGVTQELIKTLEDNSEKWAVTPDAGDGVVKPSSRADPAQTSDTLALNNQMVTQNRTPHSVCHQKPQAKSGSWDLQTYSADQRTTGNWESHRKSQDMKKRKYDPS

[3] = target: T2, Apoptotic protease-activating factor 1 (Homo sapiens, UniProt O14727); format: functional
T2 sequence (O14727 whole entry): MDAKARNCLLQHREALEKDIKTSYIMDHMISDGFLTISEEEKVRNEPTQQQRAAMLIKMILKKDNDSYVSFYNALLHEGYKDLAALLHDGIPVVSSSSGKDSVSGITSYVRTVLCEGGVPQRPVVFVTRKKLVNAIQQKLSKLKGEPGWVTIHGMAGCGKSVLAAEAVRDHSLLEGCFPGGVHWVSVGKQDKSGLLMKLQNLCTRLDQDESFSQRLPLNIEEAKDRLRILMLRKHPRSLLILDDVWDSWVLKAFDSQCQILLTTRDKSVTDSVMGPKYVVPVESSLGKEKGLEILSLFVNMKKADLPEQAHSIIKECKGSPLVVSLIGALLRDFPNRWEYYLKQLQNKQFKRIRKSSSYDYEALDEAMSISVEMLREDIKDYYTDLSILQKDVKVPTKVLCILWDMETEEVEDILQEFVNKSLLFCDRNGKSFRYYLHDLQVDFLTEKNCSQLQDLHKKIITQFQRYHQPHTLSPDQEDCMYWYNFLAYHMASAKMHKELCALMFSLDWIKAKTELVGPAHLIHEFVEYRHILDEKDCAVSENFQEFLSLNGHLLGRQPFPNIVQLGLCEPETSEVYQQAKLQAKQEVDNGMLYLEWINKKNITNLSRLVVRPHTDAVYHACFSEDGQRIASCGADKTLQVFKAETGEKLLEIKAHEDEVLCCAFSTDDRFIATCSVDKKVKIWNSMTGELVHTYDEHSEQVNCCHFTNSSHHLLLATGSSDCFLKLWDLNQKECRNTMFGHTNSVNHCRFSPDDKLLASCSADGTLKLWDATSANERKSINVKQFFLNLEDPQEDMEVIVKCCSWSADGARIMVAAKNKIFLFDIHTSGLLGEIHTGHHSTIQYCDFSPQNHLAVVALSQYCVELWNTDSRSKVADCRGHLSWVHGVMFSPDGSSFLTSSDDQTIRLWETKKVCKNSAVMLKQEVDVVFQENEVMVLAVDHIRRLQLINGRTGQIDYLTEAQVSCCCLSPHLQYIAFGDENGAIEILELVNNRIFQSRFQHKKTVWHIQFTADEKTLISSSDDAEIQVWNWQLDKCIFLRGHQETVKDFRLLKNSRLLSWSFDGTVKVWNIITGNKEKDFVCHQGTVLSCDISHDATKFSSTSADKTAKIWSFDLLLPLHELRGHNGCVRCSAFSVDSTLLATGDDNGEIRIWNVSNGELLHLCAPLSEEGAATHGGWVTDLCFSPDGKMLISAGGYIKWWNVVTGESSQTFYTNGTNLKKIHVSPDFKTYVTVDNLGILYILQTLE

[4] = target: T3, Ubiquitin-conjugating enzyme E2 N (Homo sapiens, UniProt P61088); format: functional;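 also: Dose-response confirmation in a TR-FRET assay detecting UBC13-driven polyubiquitin chain formation, inhibition measured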
T3 sequence (P61088 whole entry): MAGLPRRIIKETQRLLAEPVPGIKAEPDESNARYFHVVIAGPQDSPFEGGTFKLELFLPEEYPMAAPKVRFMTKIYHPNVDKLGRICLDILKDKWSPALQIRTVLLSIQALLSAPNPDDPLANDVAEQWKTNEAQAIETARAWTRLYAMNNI

[5] = Glucagon-like peptide 1 release potency, NCI-H716 cell line, dose-response, half-maximal inhibitory concentration (AID 1117344); format: functional, cell-based
[6] = target: Aryl hydrocarbon receptor (Homo sapiens, UniProt P35869); experiment: Luminescence-based cell-based high throughput dose response assay for activators of the Aryl Hydrocarbon Receptor (AHR). [Related pubchem assays: 2796 (Primary screen (AHR activators in singlicate)), 2845 (Confirmation screen (AHR activators in triplicate)), 434939 (Counterscreen (PXR activators in triplicate)), 2804 (Summary (AHR activators))]; format: ADME
Sequence of Aryl hydrocarbon receptor (P35869 whole entry): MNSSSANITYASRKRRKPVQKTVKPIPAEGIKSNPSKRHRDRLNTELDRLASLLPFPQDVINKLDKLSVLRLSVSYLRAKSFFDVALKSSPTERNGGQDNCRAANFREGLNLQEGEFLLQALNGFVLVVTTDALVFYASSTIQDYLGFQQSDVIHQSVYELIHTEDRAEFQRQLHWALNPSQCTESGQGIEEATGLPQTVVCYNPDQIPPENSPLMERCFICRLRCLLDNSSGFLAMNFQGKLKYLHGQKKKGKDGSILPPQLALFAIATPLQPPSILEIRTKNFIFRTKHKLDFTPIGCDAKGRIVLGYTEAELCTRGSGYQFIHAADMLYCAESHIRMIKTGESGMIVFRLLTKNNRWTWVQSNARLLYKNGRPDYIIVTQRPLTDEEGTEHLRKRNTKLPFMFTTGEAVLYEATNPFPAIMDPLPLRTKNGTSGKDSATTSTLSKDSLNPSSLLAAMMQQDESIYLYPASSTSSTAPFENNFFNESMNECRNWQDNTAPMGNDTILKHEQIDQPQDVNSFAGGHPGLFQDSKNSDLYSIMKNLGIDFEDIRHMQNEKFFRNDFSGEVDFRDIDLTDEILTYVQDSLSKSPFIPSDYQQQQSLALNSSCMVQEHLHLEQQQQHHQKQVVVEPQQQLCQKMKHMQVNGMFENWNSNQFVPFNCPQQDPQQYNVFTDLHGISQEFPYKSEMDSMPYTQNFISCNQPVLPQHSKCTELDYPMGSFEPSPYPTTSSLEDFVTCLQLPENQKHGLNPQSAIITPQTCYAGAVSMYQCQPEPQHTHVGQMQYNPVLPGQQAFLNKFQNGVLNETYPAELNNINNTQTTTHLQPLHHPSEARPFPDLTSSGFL

[7] = target: Heat shock protein HSP 90-alpha (Homo sapiens, UniProt P07900); experiment: Luminescence-based dose response biochemical high throughput screening assay for inhibitors of the Heat Shock Protein 90 (HSP90). [Related pubchem assays: 1831 (Summary AID.), 1846 (Confirmation screen.), 1789 (Primary screen.)]
Paired box protein Pax-8 = Paired box protein Pax-8 (Homo sapiens, UniProt Q06710); experiment: inhibitors of PAX8-driven TPO luciferase reporter, dose response, RMG-I cells, cherry-pick (AID 687027); format: functional, cell-based;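 also: luciferase reporter driven by Pax8 target thyroperoxidase promoter measured by SteadyGlo luminescence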
Sequence of Paired box protein Pax-8 (Q06710 whole entry): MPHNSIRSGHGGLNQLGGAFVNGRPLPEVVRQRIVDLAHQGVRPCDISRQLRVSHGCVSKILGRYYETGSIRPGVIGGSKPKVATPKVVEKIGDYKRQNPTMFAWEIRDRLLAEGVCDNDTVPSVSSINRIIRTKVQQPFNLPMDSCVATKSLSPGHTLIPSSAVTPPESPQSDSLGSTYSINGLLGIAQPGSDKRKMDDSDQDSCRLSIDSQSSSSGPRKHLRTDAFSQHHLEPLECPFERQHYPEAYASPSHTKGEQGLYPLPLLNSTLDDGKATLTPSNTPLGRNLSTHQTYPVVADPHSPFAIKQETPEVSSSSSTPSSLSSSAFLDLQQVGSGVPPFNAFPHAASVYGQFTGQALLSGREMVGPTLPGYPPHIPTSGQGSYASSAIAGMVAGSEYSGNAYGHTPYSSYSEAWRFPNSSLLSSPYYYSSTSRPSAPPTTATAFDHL

[8] = cytotoxicity dependent on PAX8, dose response, cell-based, plate reader, dry powder (AID 743049); format: functional
[9] = PAX2 cell-based inhibition, dose response, selectivity assay for PAX8 inhibitor project, plate reader, dry powder samples (AID 743048); format: functional;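 also: HEK293 cells carrying a WT1 promoter luciferase reporter driven by expressed Pax2; potency is for inhibition of Pax2 driven reporter signal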
[10] = IGROV1 ovarian cancer cell cytotoxicity, dose response, PAX8 inhibitor project, plate reader, dry powder samples (AID 743043); format: functional, cell-based; conditions: IGROV-1
[11] = PAX5 activity inhibitors, dose response, selectivity assay for PAX8 inhibitor project, cell-based, plate reader, dry powder samples (AID 743047); format: functional;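 also: HEK293 cells carrying a Pax5 driven CD19 promoter luciferase reporter; potency of inhibitors that lower reporter luminescence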
[12] = cytotoxicity in COV434 cells, dose response, cytotoxicity control for PAX8 inhibitor project, cell-based, plate reader, dry powder, SA7 (AID 743145); format: functional
[13] = cytotoxicity in COV362 ovarian cancer cells, dose response, cytotoxicity control for PAX8 inhibitor project, cell-based, plate reader, dry powder, SA12 (AID 743144); format: functional
[14] = cytotoxicity in OVCAR8 ovarian cancer cells, dose response, PAX8 project, cell-based, plate reader, dry powder samples (AID 743197); format: functional; conditions: OVCAR-8
[15] = cytotoxicity toward HT-29 cells – cell-based, CellTiter-Glo luminescence, IC50, dose response (AID 1117330); format: functional
[16] = SNU-C1 cell viability reduction, dose response, CellTiter-Glo luminescence (AID 1117323); format: functional, cell-based
P388/ADR = experiment: cells; format: functional; conditions: Mus musculus
P388 = experiment: cells; format: functional; conditions: Mus musculus
[17] = cytotoxicity toward Colo320 cells – cell-based, CellTiter-Glo luminescence, IC50, dose response (AID 1117334); format: functional; conditions: COLO 320
[18] = CellTiter-Glo luminescent dose response of DLD-1 viability loss (AID 1117352); format: functional
[19] = cytotoxicity toward HCT116 cells – cell-based, CellTiter-Glo luminescence, IC50, dose response (AID 1117332); format: functional; conditions: HCT-116
[20] = Concentration-dependent survival of SW480 colon cancer line, luminescence detection with CellTiter-Glo, half-maximal inhibitory concentration (AID 1117338); format: functional
[21] = RKO cell viability reduction, dose response, CellTiter-Glo luminescence (AID 1117322); format: functional
[22] = HCT116 cell viability decrease, GSK3B pretreatment – CellTiter-Glo, IC50, dose response (AID 1117339); format: functional; conditions: HCT-116
[23] = target: Voltage-gated inwardly rectifying potassium channel KCNH2 (Homo sapiens, UniProt Q12809); experiment: hERG protection from proarrhythmic block, potency, dose response, cell-based, thallium flux (AID 2121); format: ADME
Sequence of Voltage-gated inwardly rectifying potassium channel KCNH2 (Q12809 whole entry): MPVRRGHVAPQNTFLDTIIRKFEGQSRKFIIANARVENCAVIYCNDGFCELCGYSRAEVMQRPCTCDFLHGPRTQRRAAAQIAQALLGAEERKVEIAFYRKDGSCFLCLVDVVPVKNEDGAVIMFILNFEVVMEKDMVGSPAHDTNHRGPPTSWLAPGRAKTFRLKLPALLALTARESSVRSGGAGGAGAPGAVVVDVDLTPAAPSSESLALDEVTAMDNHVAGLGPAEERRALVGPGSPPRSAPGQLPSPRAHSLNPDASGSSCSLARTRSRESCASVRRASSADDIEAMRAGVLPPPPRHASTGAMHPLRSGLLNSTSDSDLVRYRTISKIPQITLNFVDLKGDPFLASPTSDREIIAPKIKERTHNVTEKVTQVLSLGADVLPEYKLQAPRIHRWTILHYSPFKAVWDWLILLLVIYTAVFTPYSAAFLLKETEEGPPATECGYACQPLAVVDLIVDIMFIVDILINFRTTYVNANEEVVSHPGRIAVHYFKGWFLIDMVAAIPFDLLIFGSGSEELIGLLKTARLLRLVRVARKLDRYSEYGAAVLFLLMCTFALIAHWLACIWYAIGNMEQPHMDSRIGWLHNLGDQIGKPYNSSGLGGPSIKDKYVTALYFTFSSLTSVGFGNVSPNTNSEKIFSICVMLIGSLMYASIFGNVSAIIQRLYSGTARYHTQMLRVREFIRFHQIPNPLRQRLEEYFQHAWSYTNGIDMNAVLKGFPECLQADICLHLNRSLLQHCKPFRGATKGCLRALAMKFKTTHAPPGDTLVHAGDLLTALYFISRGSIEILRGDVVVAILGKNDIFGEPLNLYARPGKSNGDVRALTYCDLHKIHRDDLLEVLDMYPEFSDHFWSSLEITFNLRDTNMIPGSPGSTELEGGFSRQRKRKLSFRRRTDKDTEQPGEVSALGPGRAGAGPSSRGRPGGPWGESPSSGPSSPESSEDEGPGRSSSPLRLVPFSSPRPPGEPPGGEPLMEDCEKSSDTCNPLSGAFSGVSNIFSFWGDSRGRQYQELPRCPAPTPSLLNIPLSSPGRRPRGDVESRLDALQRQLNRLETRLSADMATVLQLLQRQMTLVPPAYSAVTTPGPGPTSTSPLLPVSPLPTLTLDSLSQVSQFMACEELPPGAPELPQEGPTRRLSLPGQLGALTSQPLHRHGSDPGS

[24] = cytotoxicity toward NIH3T3 fibroblasts, dose response, counter-screen, cell-based, ATP luminescence, mouse fibroblasts (AID 2010); format: functional;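 also: cells exposed to compound for about 90 hours before reading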
[25] = system: Streptococcus sp. 'group A'; experiment: growth inhibition of control SK(-) GAS strain, dose response, counter-screen for streptokinase expression inhibitor project, luminescence, kanamycin, BacTiterGlo, confirmation (AID 1900); format: functional, organism-based
Streptokinase A = target: T4, Streptokinase A (Streptococcus pyogenes serotype M1, UniProt P10520); experiment: S. pyogenes streptokinase expression inhibitors, potency, dose response, plasminogen activation absorbance, OD405 (AID 1914); format: functional, Streptococcus pyogenes M1 GAS;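 also: secreted streptokinase activity via plasminogen activation per viability signal from cell pellet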
T4 sequence (P10520 whole entry): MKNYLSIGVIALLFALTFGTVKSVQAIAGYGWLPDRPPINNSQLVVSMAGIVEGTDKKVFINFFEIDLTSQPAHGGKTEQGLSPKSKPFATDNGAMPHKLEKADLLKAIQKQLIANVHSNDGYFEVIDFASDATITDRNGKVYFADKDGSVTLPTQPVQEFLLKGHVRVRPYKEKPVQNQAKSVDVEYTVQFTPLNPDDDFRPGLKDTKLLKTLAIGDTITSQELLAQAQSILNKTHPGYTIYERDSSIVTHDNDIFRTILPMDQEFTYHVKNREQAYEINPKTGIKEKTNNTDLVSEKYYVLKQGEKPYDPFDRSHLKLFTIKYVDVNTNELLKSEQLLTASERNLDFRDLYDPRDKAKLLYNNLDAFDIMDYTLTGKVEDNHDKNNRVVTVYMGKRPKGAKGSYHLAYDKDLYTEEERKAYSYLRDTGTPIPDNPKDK

[26] = inhibitors of intracellular T. cruzi replication, confirmation, NIH3T3 host cells, beta-gal luminescence (AID 2044); format: functional, cell-based;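 also: intracellular parasites grown in NIH/3T3 mouse fibroblasts as host cells; luminescent beta-galactosidase reporter signal from transgenic T. cruzi replicating inside host cells; inhibitors lower the luminescence signal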
Streptococcus = experiment: Group A Streptococcus viability loss, dose response, counter-screen for streptokinase expression inhibitor project, luminescence, BacTiterGlo (AID 1915); format: functional, organism-based;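 also: potency for reduction of bacterial viability or growth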
[27] = TB: CFU replicating Measured in Microorganism System Using Imaging - 7108-05_Inhibitor_Dose_DryPowder_Activity_Set2.; format: functional

Sequence of Melanocortin receptor 4 (P32245 whole entry): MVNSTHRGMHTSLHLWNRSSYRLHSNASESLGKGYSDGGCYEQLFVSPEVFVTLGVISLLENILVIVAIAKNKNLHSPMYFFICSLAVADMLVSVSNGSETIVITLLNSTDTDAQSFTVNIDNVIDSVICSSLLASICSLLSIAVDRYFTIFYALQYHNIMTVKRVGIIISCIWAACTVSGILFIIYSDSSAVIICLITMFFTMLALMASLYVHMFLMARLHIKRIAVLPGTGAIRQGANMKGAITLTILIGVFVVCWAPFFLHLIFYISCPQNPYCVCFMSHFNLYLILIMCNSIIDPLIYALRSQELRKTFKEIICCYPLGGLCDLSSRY

## CC(C)(C)CC(C)(C)c1ccc(OCCOCC[N+](C)(C)Cc2ccccc2)cc1 [BENZETHONIUM CHLORIDE]
Melanocortin receptor 4
  EC50: > 89.2 µM (inactive)
[1]
  IC50: 13.8 µM (inactive)
[2]
  AC50: 31.3 µM (active)
[3]
  IC50: 23.5 µM (active)
[4]
  IC50: > 20 µM (inactive)
[5]
  IC50: 21.9 µM (inactive)

## COc1ccc(NC(=O)c2cccc3c(Br)cccc23)cc1
[6]
  EC50: 0.965 µM (active)

## COC(=O)c1ccccc1OCCCOc1ccc(C=O)cc1OC
[7]
  IC50: 0.314 µM (active)

## N#C[C@@H]1[C@@H](c2ccc(C#Cc3ccccc3F)cc2)[C@H](CO)N1C(=O)C1CCCCC1
Paired box protein Pax-8
  AC50: 9.74 µM (active)
[8]
  AC50: 28.6 µM (active)
[9]
  AC50: 53.3 µM (active)
[10]
  AC50: 33.4 µM (active)
[11]
  AC50: 25.8 µM (active)
[12]
  AC50: 25 µM (active)
[13]
  AC50: 32.4 µM (active)
[14]
  AC50: 37.5 µM (active)

## CCCCCCCCCCCCCCCCOP(=O)([O-])OCC[N+](C)(C)C [MILTEFOSINE]
[15]
  IC50: 1.96 µM (active)
[16]
  IC50: 0.965 µM (active)
P388/ADR
  GI50: 35.4 µM (inactive)
P388
  GI50: 21.2 µM (inactive)
[17]
  IC50: 1.49 µM (active)
[18]
  IC50: 1.23 µM (active)
[19]
  IC50: 3.39 µM (active)
[20]
  IC50: 0.478 µM (active)
[21]
  IC50: 0.437 µM (active)
[22]
  IC50: 1.48 µM (active)

## CC(C)COc1ccc(-c2nn(-c3ccccc3)cc2C(=O)Nc2nccs2)cc1
[23]
  EC50: 1.04 µM (active)
[24]
  EC50: > 30 µM (not active)
[25]
  EC50: 48.3 µM (active)
Streptokinase A
  EC50: > 150 µM (not active)
[26]
  EC50: 2.21 µM (active)
Streptococcus
  EC50: > 150 µM (not active)

## Cn1c(NC(=O)c2ccccc2F)nc2ccccc21
[27]
  AbsAC90: 128.74 µM
